In patent EP0295827A2, “Use of 24,25-dihydroxy-cholecalciferol in mending bone fractures” (priority 1987, dated 1988):

Experiments:
[1] = system: ICR mice; experiment: 30-day repeated oral administration: general blood test; assay type: in vivo; design: key: ↓: Decreased; →: No change; ↑: Increased; conditions: 30 days, vs control group
Description: (§1) 24R,25-(OH)₂-D₃ was dissolved in 1% ethanol containing Panacate 810 to a predetermined concentration and the resultant solution was forcibly and orally administered to 5-week-old male or female ICR mice for 30 days in succession so that the does might become to 10 µg/kg/day, 100 µg/kg/day and 1,000 µg/kg/day, respectively. The thus treated mice were compared with a group of mice to which only the solvent had been administered in the following test items.

[2] = system: ICR mice; experiment: 30-day repeated oral administration: urine analysis; assay type: in vivo; design: key: ↓: Decreased; →: No change; ↑: Increased; conditions: 30 days, vs control group
Description: as §1

[3] = system: ICR mice; experiment: 30-day repeated oral administration: weight of organs; assay type: in vivo; design: key: ↓: Decreased; →: No change; ↑: Increased; conditions: 30 days, vs control group
Description: as §1

[4] = system: ICR mice; experiment: 30-day repeated oral administration: pathological inspection of organs; assay type: in vivo; conditions: 10, 100 and 1,000 µg/kg/day oral, 30 days; 10% formalin, hematoxylin-eosin
Description: as §1
The following organs were fixed by 10% formalin, stained with hematoxylin-eosin and subjected to pathological inspection.

[5] = system: rabbits suffering fracture; experiment: Fibula fracture model: X-ray inspection; assay type: in vivo, Japanese white house rabbits; conditions: 100 µg/kg oral, 3 weeks after the bones had been broken
Excerpt: (§2) The right fibulae of mature house rabbits (Japanese white house rabbits having a weight of about 3 kg) were broken at the central portions under anesthetic with a dental hand drill. Each of the house rabbits was kept in a separate cage and was allowed to take an ordinary solid food (CR-1, produced by Nippon Clare Corp.) and city water freely. 24R,25-(OH)₂-D₃ and 24S,25-(OH)₂-D₃ were dispersed in an aqueous 0.5% CMC solution and orally administered to the house rabbits through a rubber catheter. The experimental groups were as follows:
(§3) The respective medicines or aqueous 0.5% CMC solution was administered to these house rabbits for 3 weeks or 6 weeks after the bones had been broken. Thereafter, the house rabbits were killed and the fibulae were taken out for X-ray inspection and a strength test (bending test by DDV-VMF produced by Toyo Baldwin Co., Ltd.).

[6] = system: rabbits suffering fracture; experiment: Fibula fracture model: strength test (bending test); assay type: in vivo, Japanese white house rabbits; conditions: 100 µg/kg oral, average value ± standard deviation
Excerpt: as §2, §3

SMILES: C=C1CC[C@H](O)C/C1=C/C=C1\CCC[C@]2(C)[C@@H]([C@H](C)CC[C@@H](O)C(C)(C)O)CC[C@@H]12 [24R,25-(OH)₂-D₃]
- Amount of hemoglobin ([1]; female, 10 μg/kg·day oral): →
- Homatocrit ([1]; female, 10 μg/kg·day oral): →
- Number of erythrocyte ([1]; female, 10 μg/kg·day oral): →
- Number of leucocyte ([1]; female, 10 μg/kg·day oral): →
- Amount of hemoglobin ([1]; female, 100 μg/kg·day oral): →
- Homatocrit ([1]; female, 100 μg/kg·day oral): →
- Number of erythrocyte ([1]; female, 100 μg/kg·day oral): →
- Number of leucocyte ([1]; female, 100 μg/kg·day oral): →
- Amount of hemoglobin ([1]; female, 1000 μg/kg·day oral): →
- Homatocrit ([1]; female, 1000 μg/kg·day oral): →
- Number of erythrocyte ([1]; female, 1000 μg/kg·day oral): →
- Number of leucocyte ([1]; female, 1000 μg/kg·day oral): →
- Amount of hemoglobin ([1]; male, 10 μg/kg·day oral): →
- Homatocrit ([1]; male, 10 μg/kg·day oral): →
- Number of erythrocyte ([1]; male, 10 μg/kg·day oral): →
- Number of leucocyte ([1]; male, 10 μg/kg·day oral): →
- Amount of hemoglobin ([1]; male, 100 μg/kg·day oral): →
- Homatocrit ([1]; male, 100 μg/kg·day oral): →
- Number of erythrocyte ([1]; male, 100 μg/kg·day oral): →
- Number of leucocyte ([1]; male, 100 μg/kg·day oral): →
- Amount of hemoglobin ([1]; male, 1000 μg/kg·day oral): →
- Homatocrit ([1]; male, 1000 μg/kg·day oral): →
- Number of erythrocyte ([1]; male, 1000 μg/kg·day oral): →
- Number of leucocyte ([1]; male, 1000 μg/kg·day oral): →
- Ketone body ([2]; female, 10 μg/kg oral): →
- Occult blood ([2]; female, 10 μg/kg oral): →
- Protein ([2]; female, 10 μg/kg oral): →
- Sugar ([2]; female, 10 μg/kg oral): →
- Urobilinogen ([2]; female, 10 μg/kg oral): →
- pH ([2]; female, 10 μg/kg oral): →
- Ketone body ([2]; female, 100 μg/kg oral): →
- Occult blood ([2]; female, 100 μg/kg oral): →
- Protein ([2]; female, 100 μg/kg oral): →
- Sugar ([2]; female, 100 μg/kg oral): →
- Urobilinogen ([2]; female, 100 μg/kg oral): →
- pH ([2]; female, 100 μg/kg oral): →
- Ketone body ([2]; female, 1000 μg/kg oral): →
- Occult blood ([2]; female, 1000 μg/kg oral): →
- Protein ([2]; female, 1000 μg/kg oral): →
- Sugar ([2]; female, 1000 μg/kg oral): →
- Urobilinogen ([2]; female, 1000 μg/kg oral): →
- pH ([2]; female, 1000 μg/kg oral): →
- Ketone body ([2]; male, 10 μg/kg oral): →
- Occult blood ([2]; male, 10 μg/kg oral): →
- Protein ([2]; male, 10 μg/kg oral): →
- Sugar ([2]; male, 10 μg/kg oral): →
- Urobilinogen ([2]; male, 10 μg/kg oral): →
- pH ([2]; male, 10 μg/kg oral): →
- Ketone body ([2]; male, 100 μg/kg oral): →
- Occult blood ([2]; male, 100 μg/kg oral): →
- Protein ([2]; male, 100 μg/kg oral): →
- Sugar ([2]; male, 100 μg/kg oral): →
- Urobilinogen ([2]; male, 100 μg/kg oral): →
- pH ([2]; male, 100 μg/kg oral): →
- Ketone body ([2]; male, 1000 μg/kg oral): →
- Occult blood ([2]; male, 1000 μg/kg oral): →
- Protein ([2]; male, 1000 μg/kg oral): →
- Sugar ([2]; male, 1000 μg/kg oral): →
- Urobilinogen ([2]; male, 1000 μg/kg oral): →
- pH ([2]; male, 1000 μg/kg oral): →
- Weight of organs: Adrenal gland ([3]; gemale, 10 μg/kg·day oral): →
- Weight of organs: Brain ([3]; gemale, 10 μg/kg·day oral): →
- Weight of organs: Heart ([3]; gemale, 10 μg/kg·day oral): →
- Weight of organs: Hypo-physis ([3]; gemale, 10 μg/kg·day oral): →
- Weight of organs: Kidney ([3]; gemale, 10 μg/kg·day oral): →
- Weight of organs: Liver ([3]; gemale, 10 μg/kg·day oral): →
- Weight of organs: Lung ([3]; gemale, 10 μg/kg·day oral): →
- Weight of organs: Ovary ([3]; gemale, 10 μg/kg·day oral): →
- Weight of organs: Spleen ([3]; gemale, 10 μg/kg·day oral): →
- Weight of organs: Thymus ([3]; gemale, 10 μg/kg·day oral): →
- Weight of organs: Uterus ([3]; gemale, 10 μg/kg·day oral): →
- Weight of organs: Adrenal gland ([3]; gemale, 100 μg/kg·day oral): →
- Weight of organs: Brain ([3]; gemale, 100 μg/kg·day oral): →
- Weight of organs: Heart ([3]; gemale, 100 μg/kg·day oral): →
- Weight of organs: Hypo-physis ([3]; gemale, 100 μg/kg·day oral): →
- Weight of organs: Kidney ([3]; gemale, 100 μg/kg·day oral): →
- Weight of organs: Liver ([3]; gemale, 100 μg/kg·day oral): →
- Weight of organs: Lung ([3]; gemale, 100 μg/kg·day oral): →
- Weight of organs: Ovary ([3]; gemale, 100 μg/kg·day oral): →
- Weight of organs: Spleen ([3]; gemale, 100 μg/kg·day oral): →
- Weight of organs: Thymus ([3]; gemale, 100 μg/kg·day oral): →
- Weight of organs: Uterus ([3]; gemale, 100 μg/kg·day oral): →
- Weight of organs: Adrenal gland ([3]; gemale, 1000 μg/kg·day oral): →
- Weight of organs: Brain ([3]; gemale, 1000 μg/kg·day oral): →
- Weight of organs: Heart ([3]; gemale, 1000 μg/kg·day oral): →
- Weight of organs: Hypo-physis ([3]; gemale, 1000 μg/kg·day oral): →
- Weight of organs: Kidney ([3]; gemale, 1000 μg/kg·day oral): →
- Weight of organs: Liver ([3]; gemale, 1000 μg/kg·day oral): →
- Weight of organs: Lung ([3]; gemale, 1000 μg/kg·day oral): →
- Weight of organs: Ovary ([3]; gemale, 1000 μg/kg·day oral): →
- Weight of organs: Spleen ([3]; gemale, 1000 μg/kg·day oral): →
- Weight of organs: Thymus ([3]; gemale, 1000 μg/kg·day oral): →
- Weight of organs: Uterus ([3]; gemale, 1000 μg/kg·day oral): →
- Weight of organs: Adrenal gland ([3]; male, 10 μg/kg·day oral): →
- Weight of organs: Brain ([3]; male, 10 μg/kg·day oral): →
- Weight of organs: Heart ([3]; male, 10 μg/kg·day oral): →
- Weight of organs: Hypo-physis ([3]; male, 10 μg/kg·day oral): →
- Weight of organs: Kidney ([3]; male, 10 μg/kg·day oral): →
- Weight of organs: Liver ([3]; male, 10 μg/kg·day oral): →
- Weight of organs: Lung ([3]; male, 10 μg/kg·day oral): →
- Weight of organs: Spleen ([3]; male, 10 μg/kg·day oral): →
- Weight of organs: Testis ([3]; male, 10 μg/kg·day oral): →
- Weight of organs: Thymus ([3]; male, 10 μg/kg·day oral): →
- Weight of organs: Adrenal gland ([3]; male, 100 μg/kg·day oral): →
- Weight of organs: Brain ([3]; male, 100 μg/kg·day oral): →
- Weight of organs: Heart ([3]; male, 100 μg/kg·day oral): →
- Weight of organs: Hypo-physis ([3]; male, 100 μg/kg·day oral): →
- Weight of organs: Kidney ([3]; male, 100 μg/kg·day oral): →
- Weight of organs: Liver ([3]; male, 100 μg/kg·day oral): →
- Weight of organs: Lung ([3]; male, 100 μg/kg·day oral): →
- Weight of organs: Spleen ([3]; male, 100 μg/kg·day oral): →
- Weight of organs: Testis ([3]; male, 100 μg/kg·day oral): →
- Weight of organs: Thymus ([3]; male, 100 μg/kg·day oral): →
- Weight of organs: Adrenal gland ([3]; male, 1000 μg/kg·day oral): →
- Weight of organs: Brain ([3]; male, 1000 μg/kg·day oral): →
- Weight of organs: Heart ([3]; male, 1000 μg/kg·day oral): →
- Weight of organs: Hypo-physis ([3]; male, 1000 μg/kg·day oral): →
- Weight of organs: Kidney ([3]; male, 1000 μg/kg·day oral): →
- Weight of organs: Liver ([3]; male, 1000 μg/kg·day oral): →
- Weight of organs: Lung ([3]; male, 1000 μg/kg·day oral): →
- Weight of organs: Spleen ([3]; male, 1000 μg/kg·day oral): →
- Weight of organs: Testis ([3]; male, 1000 μg/kg·day oral): →
- Weight of organs: Thymus ([3]; male, 1000 μg/kg·day oral): →
- pathological inspection of organs [4]: No particular abnormality was observed
- X-ray inspection [5]: the cure of the fracture was accelerated
- Bending strength ([6]; 3 weeks after): 63 ± 33 N/mm
- Bending strength ([6]; 6 weeks after): 103 ± 15 N/mm
